IC50 data for 19 compounds are collected here from patent publication US11453647B2, “Benzimidazole derivatives as adenosine receptor antagonists” (Merck Patent GmbH, priority 2017, dated 2022).

Holding throughout (format): cell-based
For one test, the target named is T1, A2B receptors (Homo sapiens, UniProt P29275).
T1 sequence (P29275 1-332): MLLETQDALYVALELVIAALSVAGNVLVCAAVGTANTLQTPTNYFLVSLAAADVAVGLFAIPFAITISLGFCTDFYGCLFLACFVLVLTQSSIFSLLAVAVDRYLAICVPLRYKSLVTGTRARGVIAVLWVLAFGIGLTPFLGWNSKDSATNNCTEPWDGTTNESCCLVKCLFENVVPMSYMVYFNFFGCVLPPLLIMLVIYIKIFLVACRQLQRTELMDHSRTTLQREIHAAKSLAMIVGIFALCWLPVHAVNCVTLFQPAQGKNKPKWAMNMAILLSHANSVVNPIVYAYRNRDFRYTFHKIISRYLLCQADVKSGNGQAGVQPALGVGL
Briefly: functional cAMP (HTRF) assay, recombinant HEK293 cells expressing human A2B receptor, agonist NECA. Further details: expressed in transfected cells; host or cells: HEK293.

Another test addresses T2, human A2A receptor (Homo sapiens, UniProt P29274).
T2 construct: expressed in transfected cells; host or cells: HEK293
The test is described as follows: functional cAMP (HTRF) assay, recombinant HEK293 cells expressing human A2A receptor, agonist NECA.

The next test concerns the target T3, human A1 receptor (Homo sapiens, UniProt P30542).
T3 construct: expressed in transfected cells; host or cells: CHO
T3 sequence (P30542 1-326): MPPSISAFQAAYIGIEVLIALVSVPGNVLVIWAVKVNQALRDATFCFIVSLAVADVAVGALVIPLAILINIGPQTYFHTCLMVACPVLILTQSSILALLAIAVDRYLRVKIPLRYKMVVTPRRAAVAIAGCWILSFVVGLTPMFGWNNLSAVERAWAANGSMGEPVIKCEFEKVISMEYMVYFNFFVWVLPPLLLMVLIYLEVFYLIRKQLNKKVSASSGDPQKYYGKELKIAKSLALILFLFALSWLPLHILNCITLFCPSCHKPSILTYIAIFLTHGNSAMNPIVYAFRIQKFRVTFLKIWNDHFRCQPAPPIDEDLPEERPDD
Briefly: functional cAMP (HTRF) assay, recombinant CHO cells expressing human A1 receptor, forskolin, agonist CPA. On the procedure:
The functional activities of human A2A, A2B, A1 and A3 receptors were determined by quantification of cAMP, being the second messenger for adenosine receptors.
For human A1 and A3 receptors, recombinant CHO cells, expressing either A1 or A3-receptor, were used. As both receptors couple to Gi proteins, the assay protocol was adapted:
Cells were seeded into 384-well plates, forskolin, test compounds and agonists (CPA for A1- and IB-MECA for A3-receptor) were added. After 30 min incubation, HTRF reagents (cAMP dynamic 2, Cis Bio) were added and the cellular cAMP levels were determined using the ENVISION (Perkin Elmer) plate reader. Obtained raw data were normalized against the inhibitor control and the neural control (DMSO) and the normalized data were fitted using GeneData software.
(In TR-FRET formats the signal depends on donor and acceptor labels being close together.)

The target of the next test is T4, human A3 receptor (Homo sapiens, UniProt P0DMS8).
T4 construct: expressed in transfected cells; host or cells: CHO
T4 sequence (P0DMS8 1-318): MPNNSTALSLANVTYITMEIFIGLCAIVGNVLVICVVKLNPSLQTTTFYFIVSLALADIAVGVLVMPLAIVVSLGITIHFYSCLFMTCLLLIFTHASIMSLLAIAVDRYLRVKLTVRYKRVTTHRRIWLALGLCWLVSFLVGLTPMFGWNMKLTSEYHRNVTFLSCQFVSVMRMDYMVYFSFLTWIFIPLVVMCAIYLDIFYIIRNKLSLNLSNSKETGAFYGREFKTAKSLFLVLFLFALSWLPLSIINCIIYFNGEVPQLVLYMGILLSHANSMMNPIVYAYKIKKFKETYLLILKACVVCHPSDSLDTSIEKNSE
Briefly: functional cAMP (HTRF) assay, recombinant CHO cells expressing human A3 receptor, forskolin, agonist IB-MECA. In a few lines:
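Gi-coupled readout: CHO cells expressing human A1 or A3 receptor were treated with forskolin, test compound and agonist (CPA for A1, IB-MECA for A3) for 30 min; cellular cAMP was then measured by HTRF. Data were normalized to inhibitor and DMSO controls and curve-fitted.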

Some results are limits rather than exact numbers.

T2 sequence (P29274 whole entry): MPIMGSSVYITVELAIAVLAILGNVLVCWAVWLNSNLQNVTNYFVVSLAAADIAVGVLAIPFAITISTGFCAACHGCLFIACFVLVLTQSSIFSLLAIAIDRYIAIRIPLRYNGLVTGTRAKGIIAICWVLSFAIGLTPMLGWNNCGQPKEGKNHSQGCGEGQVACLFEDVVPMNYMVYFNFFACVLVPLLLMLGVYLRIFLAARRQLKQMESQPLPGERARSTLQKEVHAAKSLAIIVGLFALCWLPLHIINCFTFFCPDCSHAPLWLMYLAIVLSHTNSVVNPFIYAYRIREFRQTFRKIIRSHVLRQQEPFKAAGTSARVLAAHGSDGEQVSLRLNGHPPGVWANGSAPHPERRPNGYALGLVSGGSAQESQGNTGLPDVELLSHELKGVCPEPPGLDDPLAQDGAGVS

`COc1ccc(-c2ccccc2)c2nc(NC(=O)c3ccnc(N4CCOCC4)c3)[nH]c12` [compound 7, N-(7-Methoxy-4-phenyl-1H-benzoimidazol-2-yl)-2-morpholin-4-yl-isonicotinamide]: the IC50 (commonly the concentration that inhibits the measured activity by half) is less than 1000 nM at A2B receptors, less than 10 nM at human A2A receptor, more than 1000 nM on human A1 receptor and less than 100 nM at human A3 receptor.
For `COc1ccc(-c2ccccc2)c2nc(NC(=O)c3ccc(N4CCOCC4)nc3)[nH]c12` [compound 8, N-(7-Methoxy-4-phenyl-1H-benzoimidazol-2-yl)-6-morpholin-4-yl-nicotinamide], in that order: more than 1000 nM, less than 10 nM, more than 1000 nM and less than 1000 nM.
Turning to `COc1ccc(-c2ccccc2)c2nc(NC(=O)c3ccc(CN)cc3)[nH]c12` [compound 13, 4-Aminomethyl-N-(7-methoxy-4-phenyl-1H-benzoimidazol-2-yl)-benzamide], the IC50 on A2B receptors was less than 1000 nM; at human A2A receptor, less than 10 nM; at human A1 receptor, more than 1000 nM; on human A3 receptor, less than 1000 nM.
Regarding `COc1ccc(C2CCCCC2)c2nc(NC(=O)N3CCC(C)(O)CC3)[nH]c12` [compound 16, 4-Hydroxy-4-methyl-piperidine-1-carboxylic acid (4-cyclohexyl-7-methoxy-1H-benzoimidazol-2-yl)-amide], the IC50 at A2B receptors is more than 1000 nM; at human A2A receptor, less than 10 nM; at human A1 receptor, more than 1000 nM; on human A3 receptor, less than 1000 nM.
As to `COc1ccc(-c2cnn(C)c2)c2nc(NC(=O)c3ccnc(N4CCOCC4)c3)[nH]c12` [compound 26, N-[7-Methoxy-4-(1-methyl-1H-pyrazol-4-yl)-1H-benzoimidazol-2-yl]-2-morpholin-4-yl-isonicotinamide], the IC50 was more than 1000 nM at A2B receptors, less than 10 nM at human A2A receptor, more than 1000 nM on human A1 receptor and less than 1000 nM at human A3 receptor.
Turning to `COc1ccc(-c2cnn(C)c2)c2nc(NC(=O)c3ccc(CN(C)C)cc3)[nH]c12` [compound 48, 4-[(dimethylamino)methyl]-N-[7-methoxy-4-(1-methyl-1H-pyrazol-4-yl)-1H-1,3-benzodiazol-2-yl]benzamide], the IC50 at A2B receptors is more than 1000 nM; at human A2A receptor, less than 10 nM; at human A1 receptor, more than 1000 nM; on human A3 receptor, more than 1000 nM.
In the case of `COCc1ccc(C(=O)Nc2nc3c(-c4cnn(C)c4)ccc(OC)c3[nH]2)cc1` [compound 49, N-[7-methoxy-4-(1-methyl-1H-pyrazol-4-yl)-1H-1,3-benzodiazol-2-yl]-4-(methoxymethyl)benzamide], the IC50 is less than 1000 nM on A2B receptors, less than 10 nM at human A2A receptor, more than 1000 nM at human A1 receptor and less than 100 nM on human A3 receptor.
As to `COc1ccc(-c2cnn(C)c2)c2nc(NC(=O)N3CCC(Oc4ccccc4)CC3)[nH]c12` [compound 54, N-[7-methoxy-4-(1-methyl-1H-pyrazol-4-yl)-1H-1,3-benzodiazol-2-yl]-4-phenoxypiperidine-1-carboxamide], the half-maximal inhibitory concentration (IC50) is less than 1000 nM on A2B receptors, less than 100 nM at human A2A receptor, less than 1000 nM at human A1 receptor and more than 1000 nM at human A3 receptor.
In the case of `COc1ccc(N2CCOCC2)c2nc(NC(=O)c3ccc(F)cc3)[nH]c12` [compound 63, 4-fluoro-N-[7-methoxy-4-(morpholin-4-yl)-1H-1,3-benzodiazol-2-yl]benzamide], the IC50 was less than 1000 nM on A2B receptors, less than 10 nM on human A2A receptor, more than 1000 nM on human A1 receptor and less than 100 nM on human A3 receptor.
`COCCOCCn1cc(-c2ccc(OC)c3nc(NC(=O)N4CCC(C)(O)CC4)[nH]c23)cn1` [compound 230, 4-hydroxy-N-(4-methoxy-7-{1-[2-(2-methoxyethoxy)ethyl]-1H-pyrazol-4-yl}-1H-1,3-benzodiazol-2-yl)-4-methylpiperidine-1-carboxamide]: the values for the IC50 on human A2A receptor, on human A1 receptor and on human A3 receptor were less than 100 nM, more than 1000 nM and more than 1000 nM, respectively.
`COc1ccc(-c2cnn(-c3ccccn3)c2)c2[nH]c(NC(=O)N3CCC(C)(O)CC3)nc12` [compound 231, 4-hydroxy-N-{4-methoxy-7-[1-(pyridin-2-yl)-1H-pyrazol-4-yl]-1H-1,3-benzodiazol-2-yl}-4-methylpiperidine-1-carboxamide]: the figures for the IC50 on human A2A receptor, at human A1 receptor and at human A3 receptor were less than 100 nM, less than 1000 nM and less than 1000 nM, respectively.
Consider `CCCC1(c2ccc(OC)c3[nH]c(NC(=O)c4cnn(C)c4)nc23)CC1` [compound 232, N-[7-methoxy-4-(1-propylcyclopropyl)-1H-1,3-benzodiazol-2-yl]-1-methyl-1H-pyrazole-4-carboxamide], for which the IC50 at human A2A receptor was less than 100 nM; on human A1 receptor it was more than 1000 nM; at human A3 receptor, less than 1000 nM.
Taken in the same sequence, the figures for `CCCC(CC)c1ccc(OC)c2[nH]c(NC(=O)c3cnn(C)c3)nc12` (stereo not drawn) [compound 233, N-[4-(hexan-3-yl)-7-methoxy-1H-1,3-benzodiazol-2-yl]-1-methyl-1H-pyrazole-4-carboxamide] were less than 100 nM, more than 1000 nM and less than 10 nM.
Taken in the same sequence, the figures for `COc1ccc(C2CCOCC2)c2nc(NC(=O)c3cnc(C)o3)[nH]c12` [compound 234, N-[7-methoxy-4-(oxan-4-yl)-1H-1,3-benzodiazol-2-yl]-2-methyl-1,3-oxazole-5-carboxamide] were less than 10 nM, more than 1000 nM and less than 1000 nM.
Taken in the same sequence, the figures for `COc1ccc(-c2cnn(C3CCOC3)c2)c2nc(NC(=O)N3CCC(C)(O)CC3)[nH]c12` (stereo not drawn) [compound 241, 4-hydroxy-N-{4-methoxy-7-[1-(oxolan-3-yl)-1H-pyrazol-4-yl]-1H-1,3-benzodiazol-2-yl}-4-methylpiperidine-1-carboxamide] were less than 100 nM, more than 1000 nM and more than 1000 nM.
Take `COc1ccc(-c2cnn(C3CN(C(=O)OC(C)(C)C)C3)c2)c2[nH]c(NC(=O)N3CCC(C)(O)CC3)nc12` [compound 245, tert-butyl 3-(4-{2-[(4-hydroxy-4-methylpiperidine-1-carbonyl)amino]-4-methoxy-1H-1,3-benzodiazol-7-yl}-1H-pyrazol-1-yl)azetidine-1-carboxylate]: the values for the IC50 at human A2A receptor, at human A1 receptor and on human A3 receptor were less than 100 nM, more than 1000 nM and more than 1000 nM, respectively.
For `COc1ccc(-c2ccnc3[nH]ccc23)c2[nH]c(NC(=O)N3CCC(C)(O)CC3)nc12` [compound 270, 4-hydroxy-N-(7-methoxy-4-{1H-pyrrolo[2,3-b]pyridin-4-yl}-1H-1,3-benzodiazol-2-yl)-4-methylpiperidine-1-carboxamide], the IC50 on human A2A receptor was less than 100 nM; at human A1 receptor, more than 1000 nM; on human A3 receptor, more than 1000 nM.
As for `COc1ccc(-c2ccc3c(cnn3C)c2)c2nc(NC(=O)N3CCC(C)(O)CC3)[nH]c12` [compound 273, 4-hydroxy-N-[7-methoxy-4-(1-methyl-1H-indazol-5-yl)-1H-1,3-benzodiazol-2-yl]-4-methylpiperidine-1-carboxamide], the figures for the IC50 on human A2A receptor, at human A1 receptor and on human A3 receptor were less than 100 nM, more than 1000 nM and more than 1000 nM, respectively.
`COc1ccc(-c2cccc3c2CCN3)c2nc(NC(=O)N3CCC(C)(O)CC3)[nH]c12` [compound 292, N-[4-(2,3-dihydro-1H-indol-4-yl)-7-methoxy-1H-1,3-benzodiazol-2-yl]-4-hydroxy-4-methylpiperidine-1-carboxamide]: the half-maximal inhibitory concentration (IC50) at human A2A receptor is less than 100 nM; on human A1 receptor, less than 10 nM; on human A3 receptor it was more than 1000 nM.
